Test results from US20050049220A1, “Dosing regimen for Flaviviridae therapy” (priority 2003, published 2005).
Like-named read-outs stand apart in the source and are kept apart here.

Columns and labels:
[1] = test system: HCV; test: Single treatment of an HCV-infected patient, viral load; assay type: in vivo, human
Protocol: The tolerance was acceptable, and thus the next day the patient was given a second dosage of approximately 700 mg of gemcitabine. Before the second dosage the baseline viral load was 6.49 log copies/mL.

[2] = test system: HCV replicon; test: HCV replicon assay: HCV RNA by Q-RT-PCR, 4 days exposure; assay type: cell-based, hepatitis C virus (HCV); settings: for log reduction at 10 µM: read-out: Corrected HCV RNA log10 reduction at 10 μM
Protocol: Antiviral screening assays can be done in the same media without G418 as follows: in order to keep cells in logarithmic growth phase, seed cells in a 96-well plate at low density, for example 1000 cells per well. Add the test compound immediate after seeding the cells and incubate for a period of 3 to 7 days at 37° C. in an incubator. Media is then removed, and the cells are prepared for total nucleic acid extraction (including replicon RNA and host RNA). Replicon RNA can then be amplified in a Q-RT-PCR protocol, and quantified accordingly. […] This value is called DeltaCt (ΔCt or DCt).
This value is called DeltaCt (ΔCt or dCt).

[3] = test system: HCV replicon cells; test: Prevention studies with natural ribo- or 2′-deoxy nucleosides; assay type: cell-based, human; settings: test compound at 96 h EC90 value; nucleosides at 50 μM
[4] = test system: Huh-7 cells; test: Cellular rRNA levels / cytotoxicity in HCV replicon cells; settings: for log10 RNA reduction at 100 μM, rRNA: 4 days, HCV replicon transfected Huh-7 cells
Source text: In a typical setting, a compound might reduce both the host RNA polymerase activity and the replicon-encoded polymerase activity. Therefore, quantification of rRNA (or any other host RNA polymerase I product) or beta-actin mRNA (or any other host RNA polymerase II) and comparison with RNA levels of the no-drug control is a relative measurement of the effect of the test compound on host RNA polymerases.
With the availability of both the HCV ΔCt data and the rRNA ΔCt, a specificity parameter can be introduced. This parameter is obtained by subtracting both ΔCt values from each other.
IFN-α-2a and ribavirin were tested over a range of concentrations for their ability to reduce the HCV RNA levels in exponentially growing replicon cells after 4 days of exposure as described (Stuyver, L. et al. “A ribonucleoside analogue that blocks the replication of bovine viral diarrhea and hepatitis C viruses in culture” Antimicrob. Agents Chemother. 2003, 47, 244-254).
Gemcitabine was dissolved in DMSO and added to the culture media of a cellular model system of Huh7 cells harboring self-replicating HCV RNA, at final concentrations ranging from […]. In such experiments, one way to express the antiviral effectiveness of a compound is to subtract the threshold reverse-transcriptase polymerase chain reactions (RT-PCR) cycle of the test compound with the average threshold RT-PCR cycle of the negative control. This value is called DeltaCt (ΔCt or dCt). With the availability of both the HCV ΔCt data and the rRNA ΔCt, a specificity parameter can be introduced. This parameter is obtained by subtracting both ΔCt values from each other.

[5] = test system: HCV replicon cells (Huh-7); test: 7-day cell growth dynamics, trypan-blue cell count; settings: for effect on cell proliferation: 7-day period, at 96 h EC90 value (ribavirin 100 μM, IFN 100 IU/ml)
Protocol: FIG. 2 is a graphical depiction of the dynamics of cell growth and HCV RNA levels after exposure to control anti-HCV compounds. HCV replicon cells were seeded at approximately 10^4 cells per well in a 24-well plate. Over a 7-day period, cells were counted daily, and rRNA and HCV RNA were quantified by Q-RT-PCR. A: IFN-α-2a at 100 IU/ml; B: ribavirin at 100 μM. ●: cell proliferation in absence of compound; ◯: cell proliferation in presence of compound; ▾: HCV RNA levels in untreated cells; ∇: HCV RNA levels in the presence of compound. The curves shown are averages of 3 independent experiments.
Therefore, experiments were conducted to monitor HCV RNA levels and the cell growth dynamics over a 7-day period.
The dynamics of HCV replicon cells exposed to these inhibitors (at their EC90 value) was monitored over a 7-day period.

[6] = test system: HCV replicon RNA; test: Replicon RNA copy number per cell; assay type: cell-based, hepatitis C virus (HCV); settings: for change in replicon RNA copy number per cell (words): 7-day period, treated versus no-treatment controls
Protocol: FIG. 4 is a graphical depiction of the log10 changes for replicon RNA levels per cell. The plots were obtained from data collected in FIGS. 2 and 3, in which log10 changes for cell count and replicon RNA levels were subtracted from each other. A. Control antiviral compounds. ●: no drug control; ▾: IFN-α-2a at 100 IU/ml; ▪: ribavirin at 100 μM. B. Selection of the most important anti-metabolites. ●: no drug control; ▾: dFdC at 50 nM; ▪: CP-C at 25 μM; ♦: CPE-C at 2.5 μM; ▴: PALA at 10 μM; ●: PZF at 5 μM.
To express the specificity of the antiviral action of the control compounds versus the anti-metabolites, the log10 change in replicon RNA copy number per cell and per day was calculated from the above experiments.

[7] = test system: HCV replicon RNA; test: 7-day dynamics of HCV RNA levels; assay type: cell-based, hepatitis C virus (HCV); settings: for effect on HCV RNA levels: 7-day period, at 96 h EC90 value (IFN 100 IU/ml)
[8] = test system: HCV; settings: cited from earlier work
[9] = second dosage approximately 700 mg
[10] = Hepatitis C virus, 96 h, 100 μM, 4 days, HCV replicon transfected Huh-7 cells, read-out: log10 RNA reduction at 100 μM, HCV

## Nc1ccn([C@@H]2O[C@H](CO)[C@@H](O)C2(F)F)c(=O)n1 [dFdC, 2′-deoxy-2′,2′-difluorocytidine]
[1]; patient with multifocal HCC, cirrhosis, ischaemic hepatitis, listed as gemcitabine
  tolerance / adverse events: heart problems
[1]; patient, day after 1200 mg gemcitabine HCl with oxaliplatine
  baseline viral load before the second dosage: 6.49 log copies/mL
[1]; [9]
  HCV RNA eight hours after the second dosage: 4.04 log copies/mL
  drop in HCV RNA in eight hours: ~2.5 log
[2]; 96 h incubation
  Corrected HCV RNA EC90: Too toxic
[2]; HCV replicon cells
  antiviral activity on HCV replicon RNA: most potent inhibitor of both replicon RNA and cells
[2]; Hepatitis C virus, 96 h
  log reduction at 10 µM: 1.32 ± 0.08
[2]; Hepatitis C virus, Huh-7, 96 h, 4-days incubation, Huh7 cells harboring self-replicating HCV RNA, read-out: EC90, reduction of replicon HCV RNA
  EC90: ~70 nM
[2]; Hepatitis C virus, Huh-7, Huh7 cells harboring self-replicating HCV RNA, read-out: EC50, reduction of HCV RNA levels
  EC50: 40 nM
[2]; dFdC tested initially at 50 μM
  log10 RNA reduction, HCV: 1.87 ± 0.16 log10
[2]; dFdC tested initially at 50 μM, corrected for rRNA
  Corrected HCV RNA log10 reduction: 1.29 ± 0.11 log10
[3]
  prevention of antiviral and cytostatic effects by natural nucleosides: prevented by 2′-deoxycytidine
[4]; Homo sapiens, Huh-7
  IC50: 240 nM
[4]; dFdC tested initially at 50 μM
  log10 RNA reduction, rRNA: 0.59 ± 0.05 log10
[5]; range of testing 50-1,000 nM, 7-day dynamics
  non-cytotoxic concentration: could not be found

## Cyclopentylcytosine [CP-C]
[6]
  change in replicon RNA copy number per cell (words): profile similar to that seen for IFN-α-2a
[7]
  effect on HCV RNA levels: reduced HCV-replicon RNA levels
[2]; 10 μM, corrected for rRNA
  Corrected HCV RNA log10 reduction at 10 μM: 0.64 ± 0.10 log10
[2]; 100 μM, 4 days, HCV replicon transfected Huh-7 cells
  log10 RNA reduction at 100 μM, HCV: 1.97 ± 0.38 log10
[2]; 100 μM, corrected for rRNA
  Corrected HCV RNA log10 reduction at 100 μM: 1.06 ± 0.26 log10
[2]; 96 h incubation, read-out: Corrected HCV RNA EC90
  EC90: 25000 nM
[3]
  prevention of antiviral and cytostatic effects by natural nucleosides: addition of cytidine to the culture medium compensated for the inhibitory effects
[4]
  log10 RNA reduction at 100 μM, rRNA: 0.91 ± 0.13 log10
[5]
  effect on cell proliferation: cytostatic effects

## NC(=O)c1[nH]nc([C@@H]2O[C@H](CO)[C@@H](O)[C@H]2O)c1O [PZF, pyrazofurin]
[6]; 5 μM, after 7 days treatment
  reduction in replicon RNA levels per cell: 2.96 log10
[6]
  change in replicon RNA copy number per cell (words): time dependent reduction
[7]
  effect on HCV RNA levels: significantly reduced HCV RNA levels
[2]; Hepatitis C virus, 96 h, read-out: Corrected HCV RNA EC90
  EC90: 3800 nM
[2]; Hepatitis C virus, 96 h
  log reduction at 10 µM: 1.16 ± 0.21
[2]; Hepatitis C virus, 96 h, read-out: Corrected HCV RNA log10 reduction at 100 μM
  log reduction at 100 µM: 1.46 ± 0.08
[2]; [10]
  log reduction at 100 µM: 1.88 ± 0.05
[3]
  prevention of antiviral and cytostatic effects by natural nucleosides: prevented by addition of uridine
[4]
  log10 RNA reduction at 100 μM, rRNA: 0.42 ± 0.03 log10
[5]
  effect on cell proliferation: reduced cell proliferation only minimally

## NC(=O)c1ncn([C@@H]2O[C@H](CO)[C@@H](O)[C@H]2O)n1 [Ribavirin, 1-β-D-ribofuranosyl-1-1,2,4-triazole-3-carboxamide]
[6]
  change in replicon RNA copy number per cell (words): only minimally
[6]; listed as ribavirin
  change in replicon RNA copy number per cell (words): changed only marginally
[7]; 100 μM
  HCV RNA reduction on day 7 compared to untreated controls: 2.08 log10
[2]; Hepatitis C virus, 96 h, 10 μM, corrected for rRNA
  log reduction at 10 µM: 0.16 ± 0.1
[2]; [10]
  log reduction at 100 µM: 1.96 ± 0.28
[2]; Hepatitis C virus, 96 h, 100 μM, corrected for rRNA, read-out: Corrected HCV RNA log10 reduction at 100 μM
  log reduction at 100 µM: 1.05 ± 0.29
[2]; Hepatitis C virus, 96 h incubation, read-out: Corrected HCV RNA EC90
  EC90: ~100000 nM
[8]; HCV patients
  effect on serum levels of HCV-RNA: does not lower
[8]
  patients with serum amino transferase levels reduced to normal: 40%
[3]
  prevention of antiviral and cytostatic effects by natural nucleosides: 2′-deoxyguanosine and guanosine prevented the effects
[4]
  log10 RNA reduction at 100 μM, rRNA: 0.91 ± 0.12 log10
[5]; 100 μM
  log10 reduction in cell growth at day 7 compared to day 0: 0.22±0.1 log10
  log10 reduction in cell growth compared to the no treatment control on day 7: 1.53 log10
[5]
  effect on cell proliferation: completely inhibited cell proliferation
